Laboratory results reported in patent US10377770B2 (Novartis AG, priority 2015, dated 2019).
pIC50: −log10 of the molar value.

The compounds below were run against C-Raf FL (full length CRAF with Y340E and Y341E activating mutations, co-expressed with h14-3-3 zeta) (Homo sapiens (Human), UniProt P04049, Y340E/Y341E) (assay: In vitro Raf activity determination, AlphaScreen p-MEK readout, c-Raf (C-Raf FL)). Details: c-Raf approximately 4 nM, ATP 1 μM, pre-incubation 60 minutes, reaction 1 hour.
Sequence of C-Raf FL (full length CRAF with Y340E and Y341E activating mutations, co-expressed with h14-3-3 zeta) (P04049 whole entry Y340E/Y341E): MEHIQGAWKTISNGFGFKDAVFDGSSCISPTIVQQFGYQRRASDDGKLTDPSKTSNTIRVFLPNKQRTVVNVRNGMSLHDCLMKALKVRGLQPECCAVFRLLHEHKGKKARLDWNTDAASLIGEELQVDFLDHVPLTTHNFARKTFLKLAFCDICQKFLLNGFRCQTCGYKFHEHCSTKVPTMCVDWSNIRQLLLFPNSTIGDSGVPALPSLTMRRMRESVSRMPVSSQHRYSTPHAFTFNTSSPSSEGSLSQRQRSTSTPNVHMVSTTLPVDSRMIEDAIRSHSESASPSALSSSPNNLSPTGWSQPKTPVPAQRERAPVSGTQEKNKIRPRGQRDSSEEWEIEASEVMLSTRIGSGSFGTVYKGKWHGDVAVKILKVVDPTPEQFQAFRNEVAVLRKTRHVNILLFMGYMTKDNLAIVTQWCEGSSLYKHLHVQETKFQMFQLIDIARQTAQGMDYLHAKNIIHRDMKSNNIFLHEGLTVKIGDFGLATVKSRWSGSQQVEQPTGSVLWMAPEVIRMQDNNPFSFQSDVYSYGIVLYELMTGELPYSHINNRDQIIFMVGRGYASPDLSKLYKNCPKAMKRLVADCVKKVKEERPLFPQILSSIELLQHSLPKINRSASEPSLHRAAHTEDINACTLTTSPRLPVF
Sequence of C-Raf FL (full length CRAF with Y340E and Y341E activating mutations, co-expressed with h14-3-3 zeta) (P63104 whole entry partner): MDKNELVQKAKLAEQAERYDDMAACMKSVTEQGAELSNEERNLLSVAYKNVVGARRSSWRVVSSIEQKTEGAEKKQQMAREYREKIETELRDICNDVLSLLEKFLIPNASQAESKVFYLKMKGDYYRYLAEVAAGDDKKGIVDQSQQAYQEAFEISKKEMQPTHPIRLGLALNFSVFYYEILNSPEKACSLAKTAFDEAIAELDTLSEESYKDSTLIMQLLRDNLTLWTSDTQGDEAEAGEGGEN
Assay type: biochemical
In short: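 Full-length C-Raf (~4 nM) pre-incubated 60 min at room temperature with compound and kinase-dead biotinylated MEK1 (~10 nM) in Tris pH 7.5, 15 mM MgCl2, BSA, DTT. Reaction started with 1 μM ATP and run 1 h at room temperature. Phospho-MEK detected by AlphaScreen with anti-p-MEK antibody.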
`Cc1ccc(NC(=O)c2ccnc(C(C)(F)F)c2)cc1-c1ccc2c(c1)N1CCOC[C@@H]1C(CO)(CO)C2` [Example 53, (S)—N-(3-(5,5-bis(hydroxymethyl)-1,2,4,4a,5,6-hexahydro-[1,4]oxazino[4,3-a]quinolin-9-yl)-4-methylphenyl)-2-(1,1-difluoroethyl)isonicotinamide] gave a pIC50 of 11.21.
In the case of `Cc1ccc(NC(=O)c2ccnc(C(C)(F)F)c2)cc1-c1ccc2c(c1)N1CCOC[C@H]1C1(COC1)C2` [Example 57, (R)-2-(1,1-difluoroethyl)-N-(4-methyl-3-(1′,2′,4′,4a′-tetrahydro-6′H-spiro[oxetane-3,5′-[1,4]oxazino[4,3-a]quinolin]-9′-yl)phenyl)isonicotinamide], the pIC50 was 10.96.
For `Cc1ccc(NC(=O)c2ccnc(C(C)(F)F)c2)cc1-c1ccc2c(c1)N1CCOC[C@@H]1C1(COC1)C2` [Example 58, (S)-2-(1,1-difluoroethyl)-N-(4-methyl-3-(1′,2′,4′,4a′-tetrahydro-6′H-spiro[oxetane-3,5′-[1,4]oxazino[4,3-a]quinolin]-9′-yl)phenyl)isonicotinamide], the pIC50 was 11.00.
`Cc1ccc(NC(=O)c2ccnc(C(C)(F)F)c2)cc1-c1ccc2c(c1)N1CCOC[C@H]1[C@](F)(CO)C2` [Example 80, 2-(1,1-difluoroethyl)-N-(3-((4aS,5S)-5-fluoro-5-(hydroxymethyl)-1,2,4,4a,5,6-hexahydro-[1,4]oxazino[4,3-a]quinolin-9-yl)-4-methylphenyl)isonicotinamide] showed a pIC50 of 9.38.
With `Cc1ccc(NC(=O)c2ccnc(C(C)(F)F)c2)cc1-c1ccc2c(c1)N1CCOC[C@@H]1[C@@](F)(CO)C2` [Example 81, 2-(1,1-difluoroethyl)-N-(3-((4aR,5R)-5-fluoro-5-(hydroxymethyl)-1,2,4,4a,5,6-hexahydro-[1,4]oxazino[4,3-a]quinolin-9-yl)-4-methylphenyl)isonicotinamide] the pIC50 was 10.09.
Work on `Cc1ncc(NC(=O)c2ccnc(C(C)(F)F)c2)cc1-c1ccc2c(c1)N1CCOC[C@H]1[C@](F)(CO)C2` [Example 84, 2-(1,1-difluoroethyl)-N-(5-((4aS,5S)-5-fluoro-5-(hydroxymethyl)-1,2,4,4a,5,6-hexahydro-[1,4]oxazino[4,3-a]quinolin-9-yl)-6-methylpyridin-3-yl)isonicotinamide] yielded a pIC50 of 9.00.
`Cc1ncc(NC(=O)c2ccnc(C(C)(F)F)c2)cc1-c1ccc2c(c1)N1CCOC[C@@H]1[C@@](F)(CO)C2` [Example 85, 2-(1,1-difluoroethyl)-N-(5-((4aR,5R)-5-fluoro-5-(hydroxymethyl)-1,2,4,4a,5,6-hexahydro-[1,4]oxazino[4,3-a]quinolin-9-yl)-6-methylpyridin-3-yl)isonicotinamide] was tested, and the pIC50 was 10.15.
With `Cc1ccc(NC(=O)c2ccnc(C(C)(F)F)c2)cc1-c1cc2n(c(=O)c1)CCC1COCCN21` (centres unmarked) [Example 95] the pIC50 was 10.52.
In the case of `Cc1ncc(NC(=O)c2ccnc(C(C)(F)F)c2)cc1-c1ccc2c(c1)N1CCOCC[C@@H]1C[C@@H]2O` [Example 97, 2-(1,1-difluoroethyl)-N-(5-((5aR,7S)-7-hydroxy-1,2,5,5a,6,7-hexahydro-4H-[1,4]oxazepino[4,5-a]quinolin-10-yl)-6-methylpyridin-3-yl)isonicotinamide], the pIC50 was 10.85.
Compound `Cc1ncc(NC(=O)c2ccnc(C(C)(F)F)c2)cc1-c1ccc2c(c1)N1CCOCC[C@H]1C[C@H]2O` [Example 98, 2-(1,1-difluoroethyl)-N-(5-((5aS,7R)-7-hydroxy-1,2,5,5a,6,7-hexahydro-4H-[1,4]oxazepino[4,5-a]quinolin-10-yl)-6-methylpyridin-3-yl)isonicotinamide] has a pIC50 of 9.25.
Compound `Cc1ccc(NC(=O)c2ccnc(C(C)(F)F)c2)cc1-c1cnc2c(c1)N1CCOCC1C(CS(C)(=O)=O)C2` (centres unmarked) [Example 99, 2-(1,1-difluoroethyl)-N-(4-methyl-3-(5-((methylsulfonyl)methyl)-1,2,4,4a,5,6-hexahydro-[1,4]oxazino[4,3-a][1,5]naphthyridin-9-yl)phenyl)isonicotinamide] has a pIC50 of 10.42.
`Cc1ccc(NC(=O)c2ccnc(C(F)(F)F)c2)cc1-c1cnc2c(c1)N1CCOC[C@H]1C[C@H]2O` [Example 102, N-(3-((4aR,6R)-6-Hydroxy-1,2,4,4a,5,6-hexahydro-[1,4]oxazino[4,3-a][1,5]naphthyridin-9-yl)-4-methylphenyl)-2-(trifluoromethyl)isonicotinamide] showed a pIC50 greater than 11.77.
Compound `Cc1ccc(NC(=O)c2ccnc(C(F)(F)F)c2)cc1-c1cnc2c(c1)N1CCOC[C@@H]1C[C@@H]2O` [Example 103, N-(3-((4aS,6S)-6-hydroxy-1,2,4,4a,5,6-hexahydro-[1,4]oxazino[4,3-a][1,5]naphthyridin-9-yl)-4-methylphenyl)-2-(trifluoromethyl)isonicotinamide] has a pIC50 of 10.89.
`Cc1ncc(NC(=O)c2cccc(C(F)(F)F)c2)cc1-c1cnc2c(c1)N1CCOC[C@H]1C[C@H]2O` [Example 105, N-(5-((4aR,6R)-6-Hydroxy-1,2,4,4a,5,6-hexahydro-[1,4]oxazino[4,3-a][1,5]naphthyridin-9-yl)-6-methylpyridin-3-yl)-3-(trifluoromethyl)benzamide] showed a pIC50 of 10.35.
Work on `Cc1ncc(NC(=O)c2cccc(C(F)(F)F)c2)cc1-c1cnc2c(c1)N1CCOC[C@@H]1C[C@@H]2O` [Example 106, N-(5-((4aS,6S)-6-Hydroxy-1,2,4,4a,5,6-hexahydro-[1,4]oxazino[4,3-a][1,5]naphthyridin-9-yl)-6-methylpyridin-3-yl)-3-(trifluoromethyl)benzamide] yielded a pIC50 of 10.92.
For `Cc1ccc(NC(=O)c2ccnc(C(C)(F)F)c2)cc1-c1cnc2c(c1)N1CCOC[C@H]1C[C@H]2O` [Example 108, 2-(1,1-Difluoroethyl)-N-(3-((4aR,6R)-6-hydroxy-1,2,4,4a,5,6-hexahydro-[1,4]oxazino[4,3-a][1,5]naphthyridin-n-9-yl)-4-methylphenyl)isonicotinamide], the pIC50 was 10.89.
`Cc1ccc(NC(=O)c2ccnc(C(C)(F)F)c2)cc1-c1cnc2c(c1)N1CCOC[C@@H]1C[C@@H]2O` [Example 109, 2-(1,1-difluoroethyl)-N-(3-((4aS,6S)-6-hydroxy-1,2,4,4a,5,6-hexahydro-[1,4]oxazino[4,3-a][1,5]naphthyridin-n-9-yl)-4-methylphenyl)isonicotinamide] showed a pIC50 of 11.24.
`Cc1ccc(NC(=O)c2ccnc(C(C)(F)F)c2)cc1-c1cnc2c(c1)N1CCOC[C@H]1[C@H](CO)C2` [Example 117, 2-(1,1-Difluoroethyl)-N-(3-((4aR,5R)-5-(hydroxymethyl)-1,2,4,4a,5,6-hexahydro-[1,4]oxazino[4,3-a][1,5]naphthyridin-9-yl)-4-methylphenyl)isonicotinamide] was tested, and the pIC50 was 11.33.
`Cc1ccc(NC(=O)c2ccnc(C(C)(F)F)c2)cc1-c1cnc2c(c1)N1CCOC[C@@H]1[C@@H](CO)C2` [Example 118, 2-(1,1-difluoroethyl)-N-(3-((4aS,5S)-5-(hydroxymethyl)-1,2,4,4a,5,6-hexahydro-[1,4]oxazino[4,3-a][1,5]naphthyridin-9-yl)-4-methylphenyl)isonicotinamide] gave a pIC50 of 11.34.
`Cc1ncc(NC(=O)c2cccc(C(F)(F)F)c2)cc1-c1cnc2c(c1)N1CCOC[C@H]1[C@H](CO)C2` [Example 120, N-(5-((4aR,5R)-5-(Hydroxymethyl)-1,2,4,4a,5,6-hexahydro-[1,4]oxazino[4,3-a][1,5]naphthyridin-9-yl)-6-methylpyridin-3-yl)-3-(trifluoromethyl)benzamide] gave a pIC50 of 10.96.
`Cc1ncc(NC(=O)c2cccc(C(F)(F)F)c2)cc1-c1cnc2c(c1)N1CCOC[C@@H]1[C@@H](CO)C2` [Example 121, N-(5-((4aS,5S)-5-(hydroxymethyl)-1,2,4,4a,5,6-hexahydro-[1,4]oxazino[4,3-a][1,5]naphthyridin-9-yl)-6-methylpyridin-3-yl)-3-(trifluoromethyl)benzamide] was tested, and the pIC50 was 11.02.
With `CCN1C(=O)C[C@@H]2COCCN2c2cc(-c3cc(NC(=O)c4ccnc(C(C)(F)F)c4)ccc3C)cnc21` [Example 126, (R)-2-(1,1-Difluoroethyl)-N-(3-(7-ethyl-6-oxo-1,2,4a,5,6,7-hexahydro-4H-[1,4]oxazino[4,3-d]pyrido[2,3-b][1,4]diazepin-10-yl)-4-methylphenyl)isonicotinamide] the pIC50 was 10.80.
`CCN1C(=O)C[C@H]2COCCN2c2cc(-c3cc(NC(=O)c4ccnc(C(C)(F)F)c4)ccc3C)cnc21` [Example 127, (S)-2-(1,1-difluoroethyl)-N-(3-(7-ethyl-6-oxo-1,2,4a,5,6,7-hexahydro-4H-[1,4]oxazino[4,3-d]pyrido[2,3-b][1,4]diazepin-10-yl)-4-methylphenyl)isonicotinamide] was tested, and the pIC50 was 10.32.
`CCN1C(=O)C[C@@H]2COCCN2c2cc(-c3cc(NC(=O)c4ccnc(C(F)(F)F)c4)ccc3C)cnc21` [Example 129, (R)-N-(3-(7-Ethyl-6-oxo-1,2,4a,5,6,7-hexahydro-4H-[1,4]oxazino[4,3-d]pyrido[2,3-b][1,4]diazepin-10-yl)-4-methylphenyl)-2-(trifluoromethyl)isonicotinamide] gave a pIC50 of 9.74.
For `CCN1C(=O)C[C@H]2COCCN2c2cc(-c3cc(NC(=O)c4ccnc(C(F)(F)F)c4)ccc3C)cnc21` [Example 130, (S)-N-(3-(7-ethyl-6-oxo-1,2,4a,5,6,7-hexahydro-4H-[1,4]oxazino[4,3-d]pyrido[2,3-b][1,4]diazepin-10-yl)-4-methylphenyl)-2-(trifluoromethyl)isonicotinamide], the pIC50 was 9.43.
Work on `Cc1ccc(NC(=O)c2ccnc(C(C)(F)F)c2)cc1-c1cc2c(nn1)OC(C)(C)[C@@H]1COCCN21` [Example 137, (S)-2-(1,1-Difluoroethyl)-N-(3-(6,6-dimethyl-6a,7,9,10-tetrahydro-6H-[1,4]oxazino[4,3-d]pyridazino[3,4-b][1,4]oxazin-2-yl)-4-methylphenyl)isonicotinamide] yielded a pIC50 of 9.62.
